Patent publication US20140371189A1, “TESTOSTERONE REPLACEMENT THERAPY IN ANIMALS, INCLUDING DOGS” (David Bieber Consulting, LLC, priority 2013, published 2014)

Assays:
[1] = injectable ester; cited from earlier work
[2] = cited from earlier work; for effectiveness when taken orally: oral
[3] = system: neutered male Cocker Spaniel with declines in mobility and arthritis; assay: Example 2: clinical outcome and side effects in a neutered male Cocker Spaniel
Protocol: (§1) A 28.7 pound, 12 year and two month-old neutered male Cocker Spaniel named Blackjack was evaluated because of his owner's concerns about declines in his level of mobility and arthritis.
(§2) During month one of the protocol, Blackjack was screened for treatment by conducting a thorough physical exam, complete blood chemistry, urinalysis, and testosterone level. […] An initial injection of testosterone IM was administered and Blackjack began treatment with Previcoxx 57 mg once per day. A follow-up was conducted by phone one day after the initial injection and again at two weeks post injection.
(§3) Previcoxx was discontinued and Metacam was prescribed. During a follow-up appointment Blackjack received an injection of testosterone IM. […] It was decided to increase the dosage of testosterone.
Radiographs were taken to rule out degenerative joint disease and neoplasia. During month three, the patient received another injection of testosterone IM. […] Blackjack was then operated on to treat the fracture.
Monthly injections of testosterone continued. The dosage of testosterone had to be lowered after surgery due to concerns about Blackjack being too active after surgery to repair his fracture and was raised again after healing was complete. During month nine, Blackjack underwent further surgery to remove multiple skin growths.
During month ten Blackjack received an injection of testosterone, returning him to the dosage he received prior to his injury and subsequent surgery. […] During month twelve Blackjack continued receiving testosterone injections, and during month thirteen additional skin growths had to be removed.

[4] = free, non-esterified form; cited from earlier work
[5] = system: dogs compromised by osteoarthritis, intervertebral disc disease, hip dysplasia, weakness due to old age, muscle atrophy and joint pain; assay: Example 1: testosterone replacement therapy study, medical record review; format: in vivo, dog
Description: In order to treat dogs, horses, or other animals in need of testosterone replacement therapy, the following protocol should be followed: • (1) Obtain information about potential patient via a clinical intake process and questionnaire such as the example shown in the drawing figure; • (2) Conduct a general physical examination on potential patient; • (3) Conduct laboratory tests on potential patient's blood and/or urine, including measuring initial testosterone levels in the patient's blood. This can be total testosterone or free testosterone. […]
A study was undertaken to determine if dogs compromised by osteoarthritis (also known as degenerative joint disease), intervertebral disc disease, hip dysplasia, weakness due to old age, muscle atrophy and joint pain experienced improvements following testosterone replacement therapy. […] Data from the medical records were analyzed to determine the efficacy of the treatment protocol. Data recorded from medical records included breed, date of birth, age, sex, neutered vs. intact, baseline testosterone level, date of testosterone injections and improvement status (improved vs. no noticeable improvement). […]
Following informed assent by each dog owner, each dog underwent an initial clinical exam including a detailed health history, list of medications, a CBC, urinalysis and baseline testosterone level were conducted. […] Changes in mobility, pain level/medications needed, energy and muscle tone were assessed and testosterone dosage was adjusted if needed prior to each injection. Follow-up testosterone levels were measured one week after the initial injection and on an as needed basis throughout the course of treatment. […]

[6] = Example 2: blood testosterone level during testosterone therapy; settings: for testosterone level: dog Blackjack
Protocol: as §1, §2, §3
At this time a regular annual exam was conducted.

For `C[C@]12CC[C@H]3[C@@H](CCC4=CC(=O)CC[C@@]43C)[C@@H]1CC[C@@H]2OC(=O)CCC1CCCC1` [Testosterone cypionate], the release time [1] is given as 8 to 10 days.
In the case of `CCCCCCC(=O)O[C@H]1CC[C@H]2[C@@H]3CCC4=CC(=O)CC[C@]4(C)[C@H]3CC[C@]12C` [Testosterone enanthate], the release time [1] is listed as 8 to 10 days.
In the case of `C[C@]12CC[C@H]3[C@@H](CCC4=CC(=O)CC[C@@]43C)[C@@H]1CC[C@@H]2OC(=O)CCc1ccccc1` [Testosterone phenylpropionate], the release time [1] is given as 1-3 weeks.
In the case of `CCCCCCCCCCC(=O)O[C@H]1CC[C@H]2[C@@H]3CCC4=CC(=O)CC[C@]4(C)[C@H]3CC[C@]12C` [testosterone undecanoate], the “effectiveness when taken orally” value [2] is listed as “effective when taken orally” and the “time to elimination from the body” value ([2]; orally administered) is listed as 3 to 4 h.
With `C[C@]12CC[C@H]3[C@@H](CCC4=CC(=O)CC[C@@]43C)[C@@H]1CC[C@@H]2O` [testosterone] the “healing of distal humeral lateral condylar fracture while being treated” value ([3]; after surgery) was “completely healed from this fracture within two months of surgery”, the side effects ([3]; follow-up one day and two weeks after initial IM injection) was “No side effects were reported” and the “behaviour leading to dosage decrease” value ([3]; month eleven) was “mounting other dogs”. For the same compound, the owner-reported improvements ([3]; owner interview in week 57 of the protocol) was “improvements in Blackjack's ability to jump on furniture, ascend and descend stairs, and rise from sitting and lying positions”, the “adverse side effects from the treatment” value ([3]; whole course of treatment) was “no adverse side effects” and the “effectiveness when taken orally” value [2] was “not effective”. The “solubility in oil and water” value [4] was “poor solubility in both oil and water”, the “subjects that made improvements after the study protocol” value ([5]; 25 dogs analysed, n=23 improved, monthly testosterone injections, improvement = more mobility and/or energy, less pain medication, less muscle atrophy) was “ninety-two” and the side effects ([5]; evaluated at monthly follow-ups, all dogs) was “no side effects were observed”. The “dogs whose injection dosages had to be lowered due to becoming too active” value ([5]; two of 25 dogs) was 8%, the testosterone level ([6]; second month, one week after second IM injection, baseline <40 pg/ml) was 604.80 pg/mL and the testosterone level ([6]; third measurement (month three/four) after increased IM dosage) was 1224.50 pg/mL. It also gave a concentration at 4 month ([6]; male, Cocker Spaniel, dog, blood, intramuscular) of 1.22 ng/mL.
In the case of Testosterone propionate, the release time [1] is listed as 3 to 4 days.
